# Measurements as given in patent US5618675A, “Methods and compositions for detecting lipopolysaccharides using CAP18 fragments” (Panorama Research, Inc., dated 1997).
# How the values were obtained:
# factor Xa = biological target: T1, factor Xa (Homo sapiens, UniProt P00742); assay: Direct inhibition of Xa, substrate S2222; format: biochemical; details: for direct Xa inhibition: concentrations over 10 μg/ml, substrate S2222; for IC50 / IC50, Direct Xa: synthetic substrate
# T1 construct: purchased Sigma Chemical Co., St. Louis, Mo
# T1 sequence (P00742 41-179 limits assumed): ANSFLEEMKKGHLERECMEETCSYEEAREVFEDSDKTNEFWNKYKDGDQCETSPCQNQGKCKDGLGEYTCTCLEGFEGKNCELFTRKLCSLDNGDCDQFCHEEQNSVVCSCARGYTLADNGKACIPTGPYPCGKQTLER
# T1 sequence (P00742 235-488 limits assumed): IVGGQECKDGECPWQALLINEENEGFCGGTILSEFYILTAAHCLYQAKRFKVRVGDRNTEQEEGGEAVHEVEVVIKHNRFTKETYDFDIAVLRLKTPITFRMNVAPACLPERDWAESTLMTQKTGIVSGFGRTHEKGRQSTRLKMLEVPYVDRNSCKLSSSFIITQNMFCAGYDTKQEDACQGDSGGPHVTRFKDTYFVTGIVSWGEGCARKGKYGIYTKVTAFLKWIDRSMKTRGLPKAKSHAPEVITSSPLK
# Text: Clotting method: Human plasma (Ortho plasma control, Ortho Diagnostic Co.). ATPP reagent (Organotechnika, Tokyo, Japan). Standard tissue factor, rabbit brain thromboplastin (Simplastin, ONO Pharmaceutical, Tokyo, Japan). Purified human factor VII, factor X, factor Xa (Sigma Chemical Co., St. Louis, Mo.). Russell Viper venom (RVV) and Echis carinatus venom (ECV, Sigma Co.).
# (§1) Synthetic chromogenic substrate method: Substrate for factor Xa, S2222 (Kabi, Bz-Ile-Glu-Arg-pNA) was used. Substrate for factor II (prothrombin), Boc-Val-Pro-Arg-pNA (Sigma Chemical Co.) was used.
# Next the effect of the RNIP peptides on the conversion of factor X to Xa was studied by two methods. […] In summary these studies confirmed that the peptides inhibit the clotting cascade by inhibiting the conversion of factor X to Xa.
# [1] = system: Salmonella minnesota R595 LPS; assay: Inhibition of RNIP-mediated hemagglutination by LPS; format: binding; details: #36-1 at 16 μg/ml, RNIP (#197) at 25 μg/ml preincubated with LPS 30 minutes
# Description: (§2) For hemagglutination assays, erythrocytes were sensitized with LPS as follows. One ml of 1% erythrocyte suspension (human 0 type, C3H/HeN mouse or sheep) was mixed with 0.2 ml of LPS solution and incubated at 37° C. for 30 min, followed by washing with phosphate buffered saline (PBS), and then the concentration of suspension was adjusted to 1.0%. In the case of S-LPS, the solution was heated at 100° C. for 1 hour before sensitization of erythrocytes. […] Activity of CAP was expressed as a minimum agglutinating concentration (MAC) of CAP. According to the method of Kirikae et al. (1986) Microbiol. Immunol. 30:269-274, 50 μl of 2-fold serial dilution of Re-LPS was added to 50 μl of 1.0% rabbit erythrocyte suspension, and incubated at 37° C. for 3, hour. Minimum agglutinating concentration of Re-LPS was expressed as 1 HA unit.
# (§3) Another series of experiments was performed to determine if the #36-1 and #197 (RNIP) peptides were capable of binding to LPS from various species of Gram-negative bacteria. For these experiments, sheep red blood cells were sensitized with Salmonella minnesota Re-LPS. Peptides #36-1 and #197 (RNIP) were preincubated with various preparations of LPS. Both peptides bind to a diverse group of lipopolysaccharides.
# (§4) °Peptide #361 (16 μg/ml) and RNIP (#197) (25 μg/ml) were
# (§5) preincubated with each LPS preparation at 370 for 30 minutes, and each
# (§6) reaction mixture was added to sheep erythrocytes sensitized with RELPS.
# E. coli 0127:B8 LPS = assay: as above; format: binding; details: #36-1 at 16 μg/ml, RNIP (#197) at 25 μg/ml preincubated with LPS 30 minutes
# Description: as §2, §3, §4, §5, §6
# E. coli J5 LPS = assay: as above; format: binding; details: #36-1 at 16 μg/ml, RNIP (#197) at 25 μg/ml preincubated with LPS 30 minutes
# Description: as §2, §3, §4, §5, §6
# [2] = system: Klebsiella pneumoniae LPS; assay: as above; format: binding; details: #36-1 at 16 μg/ml, RNIP (#197) at 25 μg/ml preincubated with LPS 30 minutes
# Description: as §2, §3, §4, §5, §6
# [3] = system: Pseudomonas aeruginosa F-D Type I LPS; assay: as above; format: binding; details: #36-1 at 16 μg/ml, RNIP (#197) at 25 μg/ml preincubated with LPS 30 minutes
# Description: as §2, §3, §4, §5, §6
# E. coli 055:B5 LPS = assay: as above; format: binding; details: #36-1 at 16 μg/ml, RNIP (#197) at 25 μg/ml preincubated with LPS 30 minutes
# Description: as §2, §3, §4, §5, §6
# E. coli 0111:B4 LPS = assay: as above; format: binding; details: #36-1 at 16 μg/ml, RNIP (#197) at 25 μg/ml preincubated with LPS 30 minutes
# Description: as §2, §3, §4, §5, §6
# prothrombin (factor II) [4] = biological target: T2, prothrombin (factor II) (Homo sapiens, UniProt P00734); assay: Prothrombin activation by Echis carinatus venom (ECV); format: biochemical; details: FIG. 17A
# Description: as §1
# A reaction mixture of prothrombin (factor II) (0.1 unit/ml, 200 μl), ECV (1 unit/ml, 200 μl), various concentration of peptide (70 μl), 50 μl of 25 mM-CaCl2 and 180 μl of Tris buffer was incubated at 37° C. for 10 min. To 300 μl of the reaction mixture, 60 μl of 4mM-thrombin substrate and 240 μl of buffer was added and further incubated for 15 min.
# prothrombin (factor II) [5] = biological target: T2, prothrombin (factor II); assay: Prothrombin activation by factor Xa; format: biochemical; details: Xa formed from tissue factor, factor VII and factor X, FIG. 17B
# Description: as §1
# a) Factor X activation. Factor X (1 unit/ml, 400 μl) was activated by incubating with a reaction mixture of factor VII (1 unit/ml, 400 μl), tissue factor (5 mg/ml, 100 μl) and CaCl2 at 37° C. for 10 min.
# b) Prothrombin (factor II) activation.
# c) Hydrolysis of thrombin substrate. To 300 μl of the reaction mixture (step b), thrombin 60 μl of substrate and 240 μl of Tris buffer was added and further incubated for 15 min.
# Pseudomonas apacia = assay: Bacterial proliferation, 3H-thymidine incorporation; format: cell-based
# Description: (§7) Bacteria were grown in trypticase broth overnight.
# (§8) To corroborate the anti-bacterial activity shown in the CFU assays, inhibition of proliferation of bacteria was tested directly using a ^3 H-thymidine incorporation assay. […] In summary although there is some strain to strain variation in the IC50, all of the Gram-negativestrains tested in two different types of assays were sensitive to these anti-microbial peptides.
# Streptococcus pyogenes = assay: as above; format: cell-based
# Description: as §7, §8
# Pseudomonas aeruginosa = assay: as above; format: cell-based
# Description: as §7, §8
# [6] = system: Staphylococcus aureus, coagulase positive; assay: as above; format: cell-based
# Description: as §7, §8
# Klebsiella pneumoniae = assay: as above; format: cell-based
# Description: as §7, §8
# human monocytes = assay: TNF release from LPS and IFNγ stimulated monocytes; format: cell-based
# E. coli = assay: Antibacterial CFU assay; details: read-out: IC50, inhibition of CFU; FIG. 6I
# [7] = RNIP 6 μg/ml (so in the source)
substance,measurement,setting,value
"36-1: synthetic rabbit RNIP-derived fragment, amino acids 135-166 of SEQ ID NO:4 (GLRKRLRKFRNKIKEKLKKIGQKIQGLLPKLA)",direct Xa inhibition,factor Xa,No evidence of direct Xa inhibition
same,IC50,factor Xa,8000 to 46000 nM
same,"IC50, Direct Xa",factor Xa,45 to 250 µg/mL
same,MIC (minimal inhibitory concentration of LPS),[1],15.6 µg/mL
same,MIC (minimal inhibitory concentration of LPS),E. coli 0127:B8 LPS,15.6 µg/mL
same,MIC (minimal inhibitory concentration of LPS),E. coli J5 LPS,7.8 µg/mL
same,MIC (minimal inhibitory concentration of LPS),[2],31.3 µg/mL
same,MIC (minimal inhibitory concentration of LPS),[3],3.9 µg/mL
same,MIC (minimal inhibitory concentration of LPS),E. coli 055:B5 LPS,15.6 µg/mL
same,MIC (minimal inhibitory concentration of LPS),E. coli 0111:B4 LPS,15.6 µg/mL
same,inhibition of Echis carinatus venom activation of purified factor II to IIa,prothrombin (factor II) [4],inhibited
same,"IC50, factor II activated by Xa",prothrombin (factor II) [5],< 1.8 µg/mL
same,IC50,"prothrombin (factor II) [5]; read-out: IC50, factor II activated by Xa",< 300 nM
"RNIP: reactive nitrogen inhibitory protein, amino acids 135-171 of SEQ ID NO:4 (rabbit CAP18 C-terminus); purified from granulocytes or synthetic (#197) (GLRKRLRKFRNKIKEKLKKIGQKIQGLLPKLAPRTDY)",direct Xa inhibition,factor Xa,No evidence of direct Xa inhibition
same,IC50,factor Xa,9000 to 33000 nM
same,"IC50, Direct Xa",factor Xa,55 to 200 µg/mL
same,Percent inhibition of proliferation,Pseudomonas apacia; RNIP 1.25 μg/ml,80%
same,Percent inhibition of proliferation,Pseudomonas apacia; RNIP 2.5 μg/ml,99%
same,Percent inhibition of proliferation,Pseudomonas apacia; RNIP 5.0 μg/ml,99%
same,Percent inhibition of proliferation,Pseudomonas apacia; [7],81%
same,Percent inhibition of proliferation,Streptococcus pyogenes; RNIP 1.25 μg/ml,79%
same,Percent inhibition of proliferation,Streptococcus pyogenes; RNIP 2.5 μg/ml,90%
same,Percent inhibition of proliferation,Streptococcus pyogenes; RNIP 5.0 μg/ml,96%
same,Percent inhibition of proliferation,Streptococcus pyogenes; [7],74%
same,Percent inhibition of proliferation,Pseudomonas aeruginosa; RNIP 1.25 μg/ml,82%
same,Percent inhibition of proliferation,Pseudomonas aeruginosa; RNIP 2.5 μg/ml,96%
same,Percent inhibition of proliferation,Pseudomonas aeruginosa; RNIP 5.0 μg/ml,99%
same,Percent inhibition of proliferation,Pseudomonas aeruginosa; [7],75%
same,Percent inhibition of proliferation,[6]; RNIP 1.25 μg/ml,57%
same,Percent inhibition of proliferation,[6]; RNIP 2.5 μg/ml,72%
same,Percent inhibition of proliferation,[6]; RNIP 5.0 μg/ml,83%
same,Percent inhibition of proliferation,[6]; [7],23%
same,Percent inhibition of proliferation,Klebsiella pneumoniae; RNIP 1.25 μg/ml,14%
same,Percent inhibition of proliferation,Klebsiella pneumoniae; RNIP 2.5 μg/ml,17%
same,Percent inhibition of proliferation,Klebsiella pneumoniae; RNIP 5.0 μg/ml,60%
same,Percent inhibition of proliferation,Klebsiella pneumoniae; [7],4%
same,TNF,"human monocytes; Human IFNγ (100 U), (1:1), stimulus alone 2.0",0.27 ng/mL
same,TNF,"human monocytes; Human IFNγ (100 U), (1:10), stimulus alone 2.0",0.35 ng/mL
same,TNF,"human monocytes; Human IFNγ (100 U), (1:100), stimulus alone 2.0",0.35 ng/mL
same,TNF,"human monocytes; LPS (10 ng/ml), (1:1), stimulus alone 1.0",0.12 ng/mL
same,TNF,"human monocytes; LPS (10 ng/ml), (1:10), stimulus alone 1.0",0.34 ng/mL
same,TNF,"human monocytes; LPS (10 ng/ml), (1:100), stimulus alone 1.0",0.23 ng/mL
same,IC50,E. coli,80 nM
same,MIC (minimal inhibitory concentration of LPS),[1],62.5 µg/mL
same,MIC (minimal inhibitory concentration of LPS),E. coli 0127:B8 LPS,62.5 µg/mL
same,MIC (minimal inhibitory concentration of LPS),E. coli J5 LPS,15.6 µg/mL
same,MIC (minimal inhibitory concentration of LPS),[2],62.5 µg/mL
same,MIC (minimal inhibitory concentration of LPS),[3],15.6 µg/mL
same,MIC (minimal inhibitory concentration of LPS),E. coli 055:B5 LPS,62.5 µg/mL
same,MIC (minimal inhibitory concentration of LPS),E. coli 0111:B4 LPS,31.3 µg/mL
same,"IC50, Echis carinatus venom activation of factor II to IIa",prothrombin (factor II) [4],9.4 µg/mL
same,inhibition of Echis carinatus venom activation of purified factor II to IIa,prothrombin (factor II) [4],inhibited
same,IC50,"prothrombin (factor II) [4]; read-out: IC50, Echis carinatus venom activation of factor II to IIa",1500 nM
same,"IC50, factor II activated by Xa",prothrombin (factor II) [5],2.8 µg/mL
